Laboratory results as given in patent US8507506B2, “Theophylline derivative inhibits osteoporosis” (Kaohsiung Medical University, priority 2011, dated 2013).
Marks after values point to notes of the source that are not given here.

What was measured:
Type in all cases: cell-based
[1] = system: Cathepsin K mRNA in RAW264.7 cells; test: RT-PCR, RANKL-induced mRNA expression of Cathepsin K; details: for RANKL-induced mRNA expression level of Cathepsin K: RAW264.7 cells, 24 hours, CTL 100%, mean ± SEM
Text: The culture medium was discarded. […] [table] f) Running • A.

RAW264.7 cells = test: BrdU assay, proliferation induced by RANKL; details: RAW264.7, 5 μM, 7.5 μM, 10 μM, FIG. 2
Method: The BrdU assay was followed the instructions of Cell Proliferation ELISA BrdU kit. 10^3 cells were plated per well in 96-well plates. […] After washing in wash buffer for three times, 100 μl/well Substrate reaction was added and incubated for 30 minutes at room temperature.

[2] = system: RAW264.7 cells stimulated by RANKL; test: TRAP stain, differentiation into multinuclear osteoclast-like cells; details: 10 ng/ml RANKL for 5 days, FIG. 3
Method: 10^3 cells were plated per well in 96-well plates. […] PBS, 50 μl/well fluid was left. […] 50 μl/well fluid was left, and then Substrate 200 μl/well was added to react for 15 minutes in room temperature. After the cells were stained in red, the cells were washed by ddH2O. At last, the cells were observed and taken pictures by an optical microscopy (40× and 200×), and Autopano Pro V1.4.2, Kolor, Paris, was used to proceed the pictures taken in 40×. Then, the number of the osteoclasts with at least three nuclei was counted and compared with the control group. […] Fixative solution: Citrate solution 25 ml, Acetone 65 ml, 37% Formaldehyde 8 ml. Stored in dark in 4° C. • 2. Citrate solution: 18 mM citric acid, 9 mM sodium citrate, and 12 mM NaCl were solved in 100 ml water, pH 3.6, and then 0.001% Triton X-100 was added at last. • 3. Substrate: 2 mg AS-MX (Naphthol As-Mx-phosphate disodium) and 6 mg Fast Red Violet LB were solved in 1 M Sodium tartrate acetone (0.1 M, pH 5) and 0.1 M, 19 ml sodium acetate.

osteoclast-like cells = test: Pit formation assay (dissolution of osteoclast-like cells); details: calcium phosphate coated plates, 10 ng/ml RANKL for five days, different concentrations, FIG. 5
Method: In order to confirm the influence of KMUP-1 to the bone dissolution of differentiated osteoclast-like cells, cells are cultured in the plates which are coated calcium phosphate of bone-like matrix in the bottom and are given 10 ng/ml RANKL for five days and different concentration of KMUP-1. According to the result, compared with the control group, in the group which is given 10 ng/ml RANKL alone for 5 days, the osteoclast-like cells have obviously dissolution activity, so the covers at the plate bottom present many holes. […] Subsequently, 100 μl medium with 1,000 cells were added into each well, and the total volume was 300 μl/well. The slides were incubated for 5 days, and the medium and the drugs were renewed every 2 days. After 5 days, the medium was removed, and the cells were washed by ddH2O 3 times. Subsequently, the cells were covered by Bleach solution for staining 5 minutes and then were washed by ddH2O for 5 times. After drying, the cells were took a photo by an optical microscopy (40× and 200×), and Autopano Pro V1.4.2, Kolor, Paris, was used to proceed the pictures taken in 40×.

[3] = system: IL-6 secretion by RAW264.7 cells; test: ELISA, RANKL-induced secretion of IL-6; details: RAW264.7, ELISA, FIG. 7(A)
Method: (§1) Under RANKL stimulation, mononuclear RAW264.7 cells can secrete pro-inflammatory cytokines such as TNF-α, IL-1, IL-6, etc. ELISA is used to measure that KMUP-1 influences RANKL to induce the secretion of pro-inflammatory cytokines. […] 10^5 cells were plated per well in 24-well plates. […] After 24 hours reaction, the reaction fluid was centrifuged (13,000 rpm, 4° C., 20 minutes), and then the supernatant was tasted by ELISA kit (R&D system and eBioscience™) to detect the amount of TNF-α, IL-1β, IL-6, and IL-10. The experimental process is followed with the instructions of the kit.

[4] = system: IL-10 secretion by RAW264.7 cells; test: ELISA, amount of IL-10; details: RAW264.7, ELISA, increasing dose, FIG. 7(B)
Method: as §1

[5] = system: JNK phosphorylation in RAW264.7 cells; test: Western blot, phosphorylation of JNK induced by RANKL; details: 7.5 μM and 10 μM, RANKL 15 minutes, FIG. 10
Method: MAP kinases including ERK, JNK and p38 are stimulated by RANKL to be phosphorylized and further influence the down-stream key transcription factors which induce the differentiation of osteoclast-like cells such as c-Fos, NFATc1, etc. Before estimating the drug effect, 10 ng/ml RANKL are used to induce the phosphorylation of ERK, JNK and p38 at different time points. […] It is shown that KMUP-1 can reduce the activation of MAP kinases induced by RANKL. […] The proteins were collected by scraping and were centrifuged (13,000 rpm, 4° C., 30 minutes). The supernatant was stored in an eppendorf in −80° C. • c) Concentrations of the proteins were examined by Bio-Red DC Protein Assay. After knowing the concentrations, the proteins were diluted to specific concentrations by adding ddH2O. One forth volume of the diluted proteins of sample buffer was added into the diluted proteins and was put in boiled water for 5 min and then was chilled on ice for 5 minutes. After short time centrifugation, the diluted proteins could be injected into wells of a gel. The gel was run at 100 V for 10 minutes until the proteins were driven to the intersection between a loading gel and a running gel. Then, the voltage was swopped to 200 V for 40 minutes. • d) A PVDF membrane was immersed in Methanol for 2 minutes. After two washes in ddH2O, the membrane was immersed in transfer buffer for 15 minutes. […]

[6] = system: MMP-2 protein in RAW264.7 cells; test: Western blot, amount of MMP-2 protein induced by RANKL; details: RANKL 24 hours, FIG. 18
Method: KMUP-1 influences there major up-stream signal transduction pathways which are related to RANK/RANKL. Western blot is used to estimate the amount of matrix metalloproteinase (MMP)-2 and MMP-9 which are related to the dissolution of osteoclast-like cells, and the enzyme activity of MMP-2 and MMP-9 are estimated via Gelatin Zymography. […] The proteins were collected by scraping and were centrifuged (13,000 rpm, 4° C., 30 minutes). The supernatant was stored in an eppendorf in −80° C. • c) Concentrations of the proteins were examined by Bio-Red DC Protein Assay. After knowing the concentrations, the proteins were diluted to specific concentrations by adding ddH2O. One forth volume of the diluted proteins of sample buffer was added into the diluted proteins and was put in boiled water for 5 min and then was chilled on ice for 5 minutes. After short time centrifugation, the diluted proteins could be injected into wells of a gel. The gel was run at 100 V for 10 minutes until the proteins were driven to the intersection between a loading gel and a running gel. Then, the voltage was swopped to 200 V for 40 minutes. • d) A PVDF membrane was immersed in Methanol for 2 minutes. After two washes in ddH2O, the membrane was immersed in transfer buffer for 15 minutes. A SDS-PAGE was put on the membrane, and wet paper was flanked them. […]

Cn1c(=O)c2c(ncn2CCN2CCN(c3ccccc3Cl)CC2)n(C)c1=O [KMUP-1, 7-[2-[4-(2-Chlorophenyl)piperazin-1-yl]ethyl] theophylline]
effect on mRNA expression of Cathepsin K induced by RANKL (in words) ([1]; 10 ng/ml RANKL, summary of Table 1): not obviously inhibits | RANKL-induced mRNA expression level of Cathepsin K ([1]; RANKL 10 ng/ml + KMUP-1 1 μM): 304 ± 7.8% | RANKL-induced mRNA expression level of Cathepsin K ([1]; RANKL 10 ng/ml + KMUP-1 2.5 μM): 305 ± 5.9% | RANKL-induced mRNA expression level of Cathepsin K ([1]; RANKL 10 ng/ml + KMUP-1 5 μM): 312 ± 6.2%^ | RANKL-induced mRNA expression level of Cathepsin K ([1]; RANKL 10 ng/ml + KMUP-1 7.5 μM): 321.5 ± 10.2% ^ | RANKL-induced mRNA expression level of Cathepsin K ([1]; RANKL 10 ng/ml + KMUP-1 10 μM): 245 ± 8.5% ^b | cell proliferation induced by RANKL (BrdU assay) (RAW264.7 cells): can inhibit the cell proliferation induced by RANKL | differentiation into multinuclear osteoclast-like cells (TRAP staining) [2]: obviously express inhibition phenomenon related to dose | dissolution of osteoclast-like cells (dissolution area) (osteoclast-like cells): can inhibit the dissolution of osetocalst-like cells | RANKL-induced secretion of IL-6 [3]: presents a dose dependent inhibition phenomenon | amount of anti-inflammatory cytokine IL-10 [4]: can raise the amount of anti-inflammatory cytokines, IL-10 | phosphorylation of JNK induced by RANKL [5]: can efficiently inhibit the phosphorylation of ERK, JNK and p38 induced by RANKL | amount of MMP-2 protein induced by RANKL [6]: can efficiently inhibit the amount of MMP-2 and MMP-9 proteins
